Results published in patent US6949506B2, “Relaxin-like factor and methods and uses thereof” (BAS Medical, Inc., priority 1995, dated 2005).
“Also recorded” adds a separate entry of the source. Positions of bridges follow the written chain, without caps; N, C: chain ends. Chains are numbered I, II in the order given. No end group written: not given here.

Columns and labels:
insulin receptor = target: T1, insulin receptor (Homo sapiens, UniProt P06213); test: Insulin-receptor binding assay on crude membrane preparations of term placenta; conditions: term placenta crude membranes; 125I-iodo-TyrA14 porcine insulin tracer
T1 construct: crude membrane preparations of term placenta; from tissue; host or cells: term placenta, crude membranes
Procedure: Insulin-receptor binding assays were performed on crude membrane preparations of term placenta, as described in Hock and Hollenberg, 1980, J. Biol. Chem. 255:10731-10736, using ^125I-iodo-Tyr^A14 porcine insulin as tracer according to the method of Linde, et al., 1986, J. Chromatogr. 369:327-339.
The assays were performed in HMS-buffer (25 mM HEPES, 104 mM NaCl, 5 mM MgCl2, 0.2% bovine serum albumin; pH 7.4) in a total volume of 100 μl. Labeled insulin (50,000 cpm/assay, 150 pM) and variable amounts of insulin were incubated with crude membranes for 1 h at room temperature. Thereafter 1 ml of buffer was added, the membranes collected by centrifugation in a microcentrifuge at 14,000 rpm for 5 min, the supernatant discarded, and the tip of the Eppendorf vial cut off and counted in a γ-counter (Minigamma, LKB, Sweden). To determine nonspecific binding unlabeled insulin was used at a concentration of 2 μl/ml (0.33 μM) and nonspecific binding was usually below 10% of the total binding.

[1] = tested on: mouse brain relaxin receptor; test: Relaxin-binding assay, mouse brain crude membranes, porcine relaxin tracer
Procedure: (§1) Relaxin-binding assays were performed as described in Yang, et al., 1992, Endocrinology 130:179-185 and Büllesbach, et al., 1994, Endocrine. 2:1115-1120, using crude membrane preparations of mouse tissue. Mouse brains of 2 mice were collected into 15 ml of chilled buffer (25 mM HEPES, 0.14 M NaCl, 5.7 mM KCI, 0.2 mM phenylmethylsulfonyl-fluoride, and 80 mg/ml soybean trypsin inhibitor, pH 7.5) supplemented with sucrose (0.25 M, final concentration). The tissue was homogenized on ice for 10 s with a Polytron homogenizer (Brinlmann, Westbury, N.Y.) at setting 5. The homogenate was centrifuged at 700 rpm for 10 min at 4° C. and the supernatants were recentrifuged at 10,000×g for 1 h. The pellet was resuspended in 15 ml of ice cold binding buffer, 25 mM HEPES, 0.14 M NaCl, 5.7 mM KCI, 0.2 mM phenylmethylsulfonylfluoride, and 80 mg/ml soybean trypsin inhibitor, pH 7.5, supplemented with 1% bovine serum albumin, and centrifuged for 1 h at 10,000×g. The crude membrane preparation was suspended in 1 ml of binding buffer and 40 μl was used per assay. The assay was performed using 40 μl of tracer (about 100,000 cpm of porcine relaxin tracer=150 pM) and 20 μl of relaxin at various concentrations. The assay was incubated for 1 h at room temperature, and the suspension diluted with 1 ml of wash buffer (25 mM HEPES, 0.14 M NaCl, 5.7 mM KCI, 1% bovine serum albumin, 0.01% NaN3) and centrifuged in Eppendorf centrifuge at 14,000 rpm for 10 min. The supernatant was discarded, the tip of the vial cut and counted in a γ-counter. Nonspecific binding was determined in the presence of 2 μl/ml of unlabeled competitor (0.33 μM). In a typical experiment the specific binding was between 25% and 40% of the total binding.

RLF receptor (uterus) = target: T2, RLF receptor (uterus) (Mus musculus, UniProt Q91ZZ5); test: Binding assay, mouse uterus crude membranes, hRLF tracer
T2 construct: brain, and uterus (of estrogen primed mice); from tissue; host or cells: uterus of estrogen-primed mice, crude membranes
T2 sequence (Q91ZZ5 whole entry): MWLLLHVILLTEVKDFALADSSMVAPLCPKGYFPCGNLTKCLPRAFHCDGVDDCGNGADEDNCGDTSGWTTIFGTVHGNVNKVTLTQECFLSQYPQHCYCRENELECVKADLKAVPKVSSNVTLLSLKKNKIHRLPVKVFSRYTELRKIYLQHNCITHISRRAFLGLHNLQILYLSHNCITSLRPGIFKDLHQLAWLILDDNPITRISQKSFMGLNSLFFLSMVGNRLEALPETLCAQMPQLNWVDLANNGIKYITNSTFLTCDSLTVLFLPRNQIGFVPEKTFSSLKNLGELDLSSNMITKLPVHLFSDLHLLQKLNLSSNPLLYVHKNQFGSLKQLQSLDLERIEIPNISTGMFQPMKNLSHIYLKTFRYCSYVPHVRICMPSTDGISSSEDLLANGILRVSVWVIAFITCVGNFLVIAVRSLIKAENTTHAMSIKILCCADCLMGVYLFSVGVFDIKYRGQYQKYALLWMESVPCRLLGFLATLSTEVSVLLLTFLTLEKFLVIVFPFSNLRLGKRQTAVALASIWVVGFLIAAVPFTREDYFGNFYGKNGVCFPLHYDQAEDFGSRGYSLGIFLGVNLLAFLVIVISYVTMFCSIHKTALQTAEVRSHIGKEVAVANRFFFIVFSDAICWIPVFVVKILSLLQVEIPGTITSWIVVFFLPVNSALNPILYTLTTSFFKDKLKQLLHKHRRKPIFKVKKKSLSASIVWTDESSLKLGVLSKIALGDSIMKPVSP
Procedure: as §1, with “The crude membrane preparation was suspended in 1 ml of binding buffer and 40 μl was used per assay. The assay was performed using 40 μl of tracer (about 100,000 cpm of porcine relaxin tracer=150 pM) and 20 μl of relaxin at various concentrations. The assay was incubated for 1 h at room temperature, and the suspension diluted with 1 ml of wash buffer (25 mM HEPES, 0.14 M NaCl, 5.7 mM KCI, 1% bovine serum albumin, 0.01% NaN3) and centrifuged in Eppendorf centrifuge at 14,000 rpm for 10 min.” left out, “In a typical experiment the specific binding was between 25% and 40% of the total binding.” left out
Tissue specificity was determined using crude membrane preparations of leg muscles, kidneys, liver. brain, and uterus (of estrogen primed mice). […] Binding was based on protein concentration determined by Lowry. […]

washed human sperm = test: Sperm motility assay; type: cell-based; conditions: 10 and 100 ng/ml
Excerpt: Materials And Methods. Semen is obtained by masturbation from healthy volunteers. The sample is allowed to liquefy at room temperature and is then mixed with Minimum Essential Medium (MEM) with Hepes buffer added. This medium is used because it coincides with that washing medium employed by the in vitro clinic at MUSC. The sperm is then separated from the seminal fluid and MEM by centrifugation. The resultant sperm pellet is then resuspended in MEM at room temperature. Aliquots are then place in siliconized centrifuge tubes and one of several compounds added: l)human relaxin 10 ng/ml, 2)human relaxin 100 ng/ml, 3)relaxin-like factor 10 ng/ml, 4)relaxin-like factor 100 ng/ml, 5)one fraction of alkaline gland fluid from stingrays diluted 1:8 with pentoxyfyline. The additive is mixed well with the sperm/medium mixture. Samples are taken at 0, 2, 4, 6 and 24 hour intervals for automated determination of the following parameters: 1)motility, 2)progressivity, 3)path velocity, 4)progressive velocity, 5)track speed, 6)elongation, 7)lateral displacement, 8)cross beat frequency, 9)straightness, 10)linearity. Briefly described, each sample is loaded into a Maker heated specimen chamber and viewed in a light microscope equipped with laser doppler optics (IVOS, Beverly, Mass.).

[2] = tested on: fibronectin expression, rheumatoid synovial fibroblasts; test: Inhibition of fibronectin expression by synovial fibroblasts; type: cell-based, human; conditions: 100 ng/ml; TGF-β-treated fibroblasts
Excerpt: The method for detecting and measuring collagen formation in the presence of relaxin described in Unemori and Amento, 1990, J. Biol. Chem. 265:10681-685 has been modified as follows to determine the ability of RLF, in vitro, to modulate the expression of fibronectin.
Materials And Methods. Specifically, using the method described in section 6.7.1., the fibronectin band was identified by size (220 kDa), bacterial collagenase-resistance, and positive staining using commercially available polyclonal anti-fibronectin antibody (Promega). The fibronectin band was scanned densitometrically to estimate levels of expression.

[3] = tested on: symphysis pubis of ovariectomized estrogen-primed female mice; test: Mouse symphysis pubis (interpubic ligament) assay; type: in vivo
Procedure: Mouse interpubic ligament assays were performed essentially as described by Steinetz, et al., 1960, Endocrinology 67:102-115. Ovariectomized virgin female mice were printed with 5 μg estrogen cypionate in 100 μl sesame oil. Five days later the mice were injected subcutaneously with human relaxin, RLF, or mixtures of human relaxin and RLF in 100 μl of 0.1% benzopurpurin 4B. Specifically, groups of five animals received either human relaxin at a suboptimal dose or a mixture of 0.2 μg, 0.4 μg and 0.8 μg human relaxin and 5 μg of RLF as given in FIG. 8. For negative control 100 μl of 0.1% benzopurpurin 4B in water were injected. After 16 hours the mice were killed in an atmosphere of CO2, the symphysis pubis dissected free, and the distance between the interpubic bones measured with a dissecting microscope fitted with transilluminating fiber optics.

- crossreactivity with the brain relaxin receptor ([1]; mouse brain): moderate crossreactivity
- excess that displaces 50% of the relaxin tracer ([1]; mouse brain relaxin receptor preparation): hundred-fold
- 50% Binding ([1]; mouse brain, tracer pRLX): 200 ng
- 50% Binding (RLF receptor (uterus)): 0.3 ng
Substance: RLF: synthesized human relaxin-like factor, two-chain peptide (A and B chain, SEQ ID NOS:3 and 4), three disulfide links (alpha AAATNPARYCCLSGCTQQDLLTLCPY; beta PTPEMREKLCGHHFVRALVRVCGGPRWSTEA; disulfide I:11-II:10; also: two further disulfide bonds, places not given here)
- binding to the insulin receptor (insulin receptor): does not bind with any significant degree
- potency in maintaining sperm motility relative to relaxin (washed human sperm): as potent in maintaining sperm motility at both doses as was relaxin
- effect on sperm motility compared to untreated controls (washed human sperm; 0-24 h): preserve the motility
- decrease of TGF-β-stimulated fibronectin expression [2]: 17%
- effect on the activity of human relaxin in the mouse bioassay ([3]; 0.2, 0.4, 0.8 μg human relaxin with 5 μg RLF): significantly increased the activity of human relaxin
- optimal RLF amount for relaxin enhancement ([3]; in the presence of 0.5 μg of human relaxin): 5 µg
- effect of RLF on the relaxin effect at maximal dose ([3]; maximal dose of both): still augmented
- symphyseal widening, RLF alone ([3]; subcutaneous, 16 hours): no effect; also recorded: does not cause symphyseal widening
